Our source for the TGI values is PubChem BioAssay (NCI).

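Tested at 5 concentrations; 48 h exposure; 96-well plates; endpoints linearly interpolated, else capped at highest concentration. TGI denotes the concentration required for complete inhibition of growth.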

Common to all, as to assay: growth of human tumour cells (NCI), 48 h
Assay [1] relates to NCI-H460 lung.
Assay [2] concerns A549 NSCLC.
Assay [3] concerns 786-0 renal.
Assay [4] relates to MDA-MB-435.
For assay [5], the system named is SNB-19 CNS.
Assay [6] concerns COLO 205 colon.
Assay [7] concerns NCI-H23 lung.
Assay [8] has as its system SW-620 colon.
The test system of assay [9] is KM12 colon.
Assay [10] has as its system NCI/ADR-RES ovarian.
The test system of assay [11] is RPMI-8226 leukemia.
The test system of assay [12] is A498 renal.
For assay [13], the system named is HCT-116 colon.
Assay [14] relates to LOX IMVI melanoma.
For assay [15], the system named is ACHN renal.
Assay [16] deals with NCI-H226 lung.
For assay [17], the system named is BT-549 breast.
Assay [18] deals with CCRF-CEM leukemia.
For assay [19], the system named is U251 CNS.
Assay [20] relates to SR leukemia.

For the compound `Cc1cc2nc3c(C#N)c(-c4ccccc4)cc(Nc4cccc(C(F)(F)F)c4)n3c2cc1C`, the TGI was 11.5 µM in assay [1]; 16.8 µM in assay [2]; 18.6 µM in [3]; 30.6 µM in [4]; 80.7 µM in assay [5]; more than 100 µM in assay [6]. The TGI in assay [7] is more than 100 µM; in assay [8], 20.7 µM; in [9], more than 100 µM; in assay [10], 20.2 µM; in assay [11] it was more than 100 µM; in assay [12], 29.5 µM. For the same compound, the TGI in [13] is 10.8 µM; in assay [14] it was more than 100 µM; in assay [15], 28.5 µM; in [16], 26.5 µM; in [17], more than 100 µM; in assay [18], more than 100 µM.

As for `O=C1c2cccnc2-c2nccc3ccnc1c23`, the TGI in [1] was 12.8 µM; in assay [2], 6.82 µM; in [3], 2.04 µM; in [19], 3.49 µM; in assay [4], 0.38 µM; in [5] it was 10.9 µM. For the same compound, the TGI in assay [6] is 1.12 µM; in [7], 2.11 µM; in [8], 1.78 µM; in [9], 2.66 µM; in assay [11], 0.894 µM; in assay [12] it was 13 µM. The TGI in assay [13] came to 0.0784 µM; in assay [14], 2.22 µM; in assay [15], 1.46 µM; in assay [16] it was 2.98 µM; in assay [17] it was 2.78 µM; in assay [18], 0.156 µM.

Turning to `Cc1ccc(C(=O)Nc2ccc(CP(=O)(O)O)cc2)cc1NC(=O)Nc1cc(C(=O)Nc2ccc(CP(=O)(O)O)cc2)ccc1C`, the TGI in [1], in assay [2], in assay [3], in assay [19], in [4] and in assay [6] was more than 100 µM each time. Besides, the TGI in [7], in assay [8], in [9], in assay [10], in assay [11] and in assay [12] was more than 100 µM in each case. For the same compound, the TGI in [13], in assay [14], in assay [16], in assay [17] and in assay [18] was more than 100 µM each time.

Turning to `CC1(CC(=O)OC(C#C[Si](C)(C)C)Cc2ccccc2)OCCO1` (configuration not stated), the TGI in assay [2], in [3], in assay [19], in [4], in [5] and in assay [6] was more than 100 µM in each case. The TGI in [7], in assay [8], in assay [9], in assay [10], in [12] and in [13] was more than 100 µM each time. For the same compound, the TGI in assay [14], in assay [15], in [16], in assay [17] and in assay [18] was more than 100 µM each time.

Take `CC[C@@H]1C[C@@H](O)[C@@H]2[C@H](O)[C@H](O)CN2C1`: the TGI in assay [1], in assay [2], in [3], in [19], in assay [4] and in assay [5] was more than 100 µM each time. The TGI in assay [6], in assay [7], in assay [8], in assay [9], in assay [10] and in assay [11] was more than 100 µM throughout. Also, the TGI in assay [12], in assay [13], in assay [14], in assay [15], in [16] and in [17] was more than 100 µM throughout. The same compound came in with a TGI in assay [18] of more than 100 µM.

As to `CC(C)C(/C=C/c1ccc(Cl)cc1)=N\NC(=S)NN`, the TGI is 41.8 µM in assay [1]; more than 100 µM in assay [2]; more than 100 µM in [3]; more than 100 µM in assay [19]; 85.2 µM in assay [4]; more than 100 µM in assay [5]. The TGI in assay [6] is more than 100 µM; in assay [7] it was more than 100 µM; in [8], more than 100 µM; in assay [9], more than 100 µM; in [10], 48.1 µM; in assay [11], more than 100 µM. In addition, the TGI in assay [12] was more than 100 µM; in assay [13] it was 11.4 µM; in assay [14], 33.7 µM; in [15], 65.6 µM; in [16], 93 µM; in [17] it was more than 100 µM. This compound also gave a TGI in assay [18] of 13.7 µM.

`COc1ccc(C2C3=C(CCCC3=O)N(c3ccccc3)C3=C2C(=O)CCC3)cc1`: the TGI in [1], in assay [2], in assay [3], in assay [19], in assay [5] and in assay [7] was more than 100 µM each time. The TGI in [8], in assay [20], in [9], in assay [10], in assay [11] and in assay [12] was more than 100 µM throughout. In addition, the TGI in assay [14], in assay [15], in assay [16], in assay [17] and in assay [18] was more than 100 µM each time.

In the case of `CC(C)(C)OC(=O)N1C(=O)OC[C@@H]2C=C[C@@H]21`, the TGI in [1], in assay [2], in assay [3], in assay [19], in assay [4] and in [5] was more than 100 µM in each case. Moreover, the TGI in assay [6], in assay [7], in [8], in assay [9], in assay [10] and in assay [11] was more than 100 µM each time. In addition, the TGI in assay [12], in [13], in [14], in [15], in assay [17] and in assay [18] was more than 100 µM throughout.

Regarding `CC1OC2OC3C(OCC(O)C3O)OC(=O)[C@]34CCC(C)(C)CC3C3=CCC5[C@@]6(C)C[C@H](O)[C@H](OC7OC(CO)C(O)C(O)C7OC7OC(COC(=O)CC(C)(O)CC(=O)OC1C(O)C2O)C(O)C(O)C7O)[C@@](C)(CO)C6CC[C@@]5(C)[C@]3(C)CC4` (some centres not stated), the TGI is 4.45 µM in assay [1]; 2.63 µM in [2]; 2.4 µM in assay [3]; 2.91 µM in [19]; 2.88 µM in assay [4]; 3.18 µM in assay [5]. The TGI in [6] was 2.98 µM; in assay [7], 3.08 µM; in assay [8], 2.44 µM; in [9] it was 2.89 µM; in [10] it was 11.9 µM; in assay [13], 3.39 µM. Besides, the TGI is 2.91 µM in assay [14], 2.52 µM in assay [15], 5.19 µM in assay [16] and 2.82 µM in [17].

On to `CO/N=C/c1c(-c2ccc(Cl)cc2)c(/C=N/OC)n2c1sc1ccccc12`, for which the TGI in assay [1], in assay [2], in assay [3], in assay [19], in [4] and in assay [5] was more than 100 µM each time. Besides, the TGI in [6], in assay [7], in [8], in [9], in assay [10] and in assay [13] was more than 100 µM in each case. For the same compound, the TGI in assay [14], in assay [15], in assay [17] and in assay [18] was more than 100 µM in each case.

Turning to `COc1ccc(-n2nnnc2C2(Nc3ccccc3)CCN(Cc3ccccc3)CC2)cc1`, the TGI in assay [1] was 42 µM; in assay [2] it was 45.8 µM; in assay [3], 28 µM; in assay [19], more than 100 µM; in assay [4] it was 15.4 µM; in [5] it was 68.5 µM. Moreover, the TGI in [6] is 20 µM; in [7] it was 57.9 µM; in assay [8], 38.3 µM; in assay [20], more than 100 µM; in assay [9], 18.8 µM; in [10], 51 µM. Moreover, the TGI in assay [11] was 48.5 µM; in [12] it was 48.7 µM; in assay [13] it was 26.2 µM; in assay [14], 24 µM; in assay [15], more than 100 µM; in assay [16], more than 100 µM. The compound further had a TGI in assay [18] of more than 100 µM.

With `C/C(=C\[C@H]1C[C@@H]([C@@H]2CC[C@]34C[C@]23C=C[C@@H]2[C@@]3(C)CC=C5C[C@@H](c6ccccc6)OC[C@]5(C)[C@@H]3C[C@@H](O)[C@]24C)C(=O)O1)CO`, the TGI in assay [2] was more than 100 µM; in assay [3] it was more than 100 µM; in [19], more than 100 µM; in [4], more than 100 µM; in assay [5] it was more than 86.7 µM; in assay [6], 5.11 µM. Also, the TGI in [7] was 36 µM; in [8], more than 100 µM; in [9] it was 15.3 µM; in assay [10] it was more than 100 µM; in assay [11] it was more than 96.4 µM; in [12] it was 5.8 µM. Further, the TGI is more than 100 µM in assay [13]; more than 100 µM in [14]; 34.8 µM in assay [15]; more than 94.2 µM in [16]; 98.6 µM in assay [17]; more than 100 µM in [18].

In the case of `CCNC(=O)Cc1nc2c(=O)[nH]cnc2n1C1OC(CO)C(O)C1O` (configuration not stated), the TGI in assay [1], in [2], in [3], in assay [19], in assay [4] and in assay [5] was more than 100 µM in each case. The TGI in assay [6], in assay [7], in [8], in assay [9], in assay [10] and in assay [11] was more than 100 µM each time. Moreover, the TGI in [12], in assay [13], in assay [14], in assay [15], in assay [16] and in assay [17] was more than 100 µM throughout. This compound yielded a TGI in assay [18] of more than 100 µM.

In the case of `Cc1c(C)c(C)c(CSC(=N)N)c(C)c1C`, the TGI came out at 26.8 µM in [1]; 30.9 µM in assay [2]; 32.9 µM in [3]; 26.4 µM in assay [19]; 31.3 µM in assay [4]; 27.9 µM in [5]. Further, the TGI in assay [6] stood at 28.1 µM; in assay [7] it was 33.4 µM; in assay [8], 29 µM; in assay [9], 39.3 µM; in assay [10], 30.6 µM; in assay [11], 38.9 µM. Further, the TGI in assay [12] is 29.8 µM; in [13], 30 µM; in assay [14], 79.2 µM; in assay [15], 30.1 µM; in assay [16] it was 27.8 µM; in assay [17] it was 30.7 µM. The same compound came in with a TGI in [18] of 35.4 µM.

As for `Cc1ccccc1Nc1cn(CCOc2ccccc2)c(=O)n(CCOc2ccccc2)c1=O`, the TGI in assay [1], in [2], in assay [3], in assay [19], in [4] and in [6] was more than 100 µM in each case. The TGI in assay [7], in [8], in assay [9], in [10], in [11] and in assay [12] was more than 100 µM throughout. Further, the TGI in [13], in [14], in [15], in assay [17] and in assay [18] was more than 100 µM in each case.
